Test results as given in PMC8795197, “Safety and activity of WX-0593 (Iruplinalkib) in patients with ALK- or ROS1-rearranged advanced non-small cell lung cancer: a phase 1 dose-escalation and dose-expansion trial” (Signal Transduction and Targeted Therapy, 2022).
Like-named read-outs stand apart in the source and are kept apart here.

Assay: Repeated-dose toxicity study, 28 days oral gavage
Format: in vivo, rats
Conditions: for AUC(0-t): po, read-out: AUC0-24h (Day 28)
Method: The severely toxic dose in 10% of the animals (STD10) in rodents was > 30 mg/kg. At a dose of 10 mg/kg/day, AUC0-24h (Day 28) was 16800 h·ng/mL in males and 17300 h·ng/mL in females, which is 4.5 times and 4.7 times of the exposure at the effective dose in mice (2.5 mg/kg, AUC0-24h: 3700 h·ng/mL). At a dose of 30 mg/kg/day, AUC0-24h (Day 28) was 27100 h·ng/mL in males and 42400 h·ng/mL in females, which is 7.3 times and 11.5 times of the exposure at the effective dose in nude mice (2.5 mg/kg, AUC0-24h: 3700 h·ng/mL).

COc1cc(N2CCC3(CCN(C)CC3)CC2)ccc1Nc1ncc(Cl)c(Nc2ccccc2P(C)(C)=O)n1 [WX-0593]
exposure as multiple of that at the effective dose in mice (10 mg/kg/day, females): 4.7 times
exposure as multiple of that at the effective dose in mice (10 mg/kg/day, males): 4.5 times
exposure as multiple of that at the effective dose in nude mice (30 mg/kg/day, females): 11.5 times
exposure as multiple of that at the effective dose in nude mice (30 mg/kg/day, males): 7.3 times
human equivalent dose (1/10 of rat STD10, 60 kg/person): 29 mg/person
severely toxic dose in 10% of the animals (STD10) (28 days oral gavage): > 30 mg/kg
AUC(0-t) (female, rat, in vivo, 10 mg/kg/day, females): 17300 ng·h/mL
AUC(0-t) (female, rat, in vivo, 30 mg/kg/day, females): 42400 ng·h/mL
AUC(0-t) (male, rat, in vivo, 10 mg/kg/day, males): 16800 ng·h/mL
AUC(0-t) (male, rat, in vivo, 30 mg/kg/day, males): 27100 ng·h/mL
NOAEL at 28 days (rat, in vivo, 28 days oral gavage): 10 mg/kg/day
